Measurements published in US12581252B2, “Substituted pyrrolo[3,4-b]pyridines as PI3K-α inhibitors” (Relay Therapeutics, Inc., priority 2020, dated 2026).

Target: H1047R PIK3CA enzyme (Homo sapiens, UniProt P42336, H1047R)
Test: ADP-Glo Biochemical PIK3CA Kinase Assay

Chain of H1047R PIK3CA enzyme (P42336 whole entry H1047R): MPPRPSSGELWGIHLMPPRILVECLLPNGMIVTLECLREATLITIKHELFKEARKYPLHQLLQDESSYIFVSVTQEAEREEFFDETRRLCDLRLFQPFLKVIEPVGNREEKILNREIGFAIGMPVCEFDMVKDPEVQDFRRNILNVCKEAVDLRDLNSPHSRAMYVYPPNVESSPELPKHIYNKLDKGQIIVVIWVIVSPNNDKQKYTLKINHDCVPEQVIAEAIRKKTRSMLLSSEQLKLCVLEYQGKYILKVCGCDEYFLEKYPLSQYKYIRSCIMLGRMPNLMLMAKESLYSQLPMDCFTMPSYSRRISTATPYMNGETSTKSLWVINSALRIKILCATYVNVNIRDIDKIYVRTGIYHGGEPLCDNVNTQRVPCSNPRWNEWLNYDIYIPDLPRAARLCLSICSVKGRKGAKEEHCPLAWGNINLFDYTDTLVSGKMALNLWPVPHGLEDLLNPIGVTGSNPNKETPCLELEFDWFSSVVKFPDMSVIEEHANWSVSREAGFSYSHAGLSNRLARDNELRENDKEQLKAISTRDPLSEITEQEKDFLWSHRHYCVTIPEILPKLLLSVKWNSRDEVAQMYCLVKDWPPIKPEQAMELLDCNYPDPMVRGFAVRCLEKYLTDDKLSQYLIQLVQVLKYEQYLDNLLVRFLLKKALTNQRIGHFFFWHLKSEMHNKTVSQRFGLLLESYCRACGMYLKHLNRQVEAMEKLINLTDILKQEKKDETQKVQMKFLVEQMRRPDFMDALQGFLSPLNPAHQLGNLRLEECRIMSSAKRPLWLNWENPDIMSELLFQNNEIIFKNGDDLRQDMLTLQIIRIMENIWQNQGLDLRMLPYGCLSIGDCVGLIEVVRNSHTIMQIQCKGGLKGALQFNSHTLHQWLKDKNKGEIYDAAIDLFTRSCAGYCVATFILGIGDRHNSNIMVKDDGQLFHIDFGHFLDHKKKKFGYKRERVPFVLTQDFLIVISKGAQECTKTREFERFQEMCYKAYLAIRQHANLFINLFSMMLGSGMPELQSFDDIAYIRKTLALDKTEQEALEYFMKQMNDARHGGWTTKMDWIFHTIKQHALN
Chain of H1047R PIK3CA enzyme (P27986 whole entry partner): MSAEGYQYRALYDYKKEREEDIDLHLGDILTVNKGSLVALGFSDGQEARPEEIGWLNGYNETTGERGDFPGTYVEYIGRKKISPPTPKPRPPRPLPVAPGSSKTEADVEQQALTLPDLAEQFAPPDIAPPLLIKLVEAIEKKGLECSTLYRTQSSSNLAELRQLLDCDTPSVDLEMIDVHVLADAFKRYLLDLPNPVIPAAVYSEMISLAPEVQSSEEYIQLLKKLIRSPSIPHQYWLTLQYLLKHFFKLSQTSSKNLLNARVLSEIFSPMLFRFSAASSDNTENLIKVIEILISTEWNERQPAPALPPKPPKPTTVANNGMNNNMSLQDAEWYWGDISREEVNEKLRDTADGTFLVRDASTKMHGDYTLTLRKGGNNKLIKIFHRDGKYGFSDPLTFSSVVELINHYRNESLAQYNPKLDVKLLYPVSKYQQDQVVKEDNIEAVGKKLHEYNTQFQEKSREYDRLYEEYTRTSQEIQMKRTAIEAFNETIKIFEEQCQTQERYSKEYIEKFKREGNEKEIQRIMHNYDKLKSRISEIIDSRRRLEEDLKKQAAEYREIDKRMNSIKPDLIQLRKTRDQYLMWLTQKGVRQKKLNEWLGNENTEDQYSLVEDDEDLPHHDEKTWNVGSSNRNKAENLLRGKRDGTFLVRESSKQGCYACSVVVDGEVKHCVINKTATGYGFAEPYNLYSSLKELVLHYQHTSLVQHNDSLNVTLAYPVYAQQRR

Row | SMILES | IC50
1 | Nc1ncc(-c2cc(NC(=O)c3cc(F)cc(C(F)(F)F)c3)c3c(c2)C(=O)N[C@H]3c2cc(F)ccc2Cl)cn1 (stereo in doubt) [Compound I-1004] | 1 to 10 µM
2 | O=C1NCc2c(NC(=O)c3csc4c3CCCC4)cccc21 [Compound I-404] | 10 to 100 µM
3 | O=C(Nc1cc(NC2CCC2(F)F)cc2c1C(c1cc(F)ccc1Cl)NC2=O)c1cc(F)cc(C(F)(F)F)c1 (stereo not shown) [Compound I-530] | ≤ 0.1 µM
4 | CC(C)(O)COc1cc(NC(=O)c2cc(F)cc(C(F)(F)F)c2)c2c(c1)C(=O)N[C@@H]2c1cc(F)ccc1Cl [Compound I-739] | 1 to 10 µM
5 | O=C(O)Cc1ccncc1-c1cc(NC(=O)c2cc(F)cc(C(F)(F)F)c2)c2c(c1)C(=O)NC2c1cc(F)ccc1Cl (stereo not shown) [Compound I-1220] | ≤ 0.1 µM
6 | Cn1cc(-c2cc(NC(=O)c3cc(F)cc(C(F)(F)F)c3)c3c(n2)C(=O)NC3c2cc(F)ccc2Cl)ccc1=O (stereo not shown) [Compound I-547] | ≤ 0.1 µM
7 | COc1ccc(-c2cc(NC(=O)c3cc(F)cc(C(F)(F)F)c3)c3c(c2)C(=O)NC3c2cc(F)ccc2Cl)cn1 (stereo not shown) [Compound I-705] | ≤ 0.1 µM
8 | O=C1NC(c2cc(F)ccc2Cl)c2c(NC(=O)N3CCCC3c3ccccc3)cc(Br)cc21 (stereo not shown) [Compound I-769] | 1 to 10 µM
9 | O=C1Cc2cc(-c3cc(NC(=O)c4cc(F)cc(C(F)(F)F)c4)c4c(c3)C(=O)NC4c3cc(F)ccc3Cl)ccc2N1 (stereo not shown) [Compound I-1041] | ≤ 0.1 µM
10 | Cc1ccc(C(=O)Nc2cc(-c3ccc4ncnn4c3)cc3c2[C@@H](c2cc(F)ccc2Cl)NC3=O)cc1C(F)(F)F (stereo in doubt) [Compound I-1168] | 10 to 100 µM
11 | O=C(Nc1cc(C#Cc2ccn[nH]2)cc2c1C(c1cc(F)ccc1Cl)NC2=O)c1cc(F)cc(C(F)(F)F)c1 (stereo not shown) [Compound I-1244] | ≤ 0.1 µM
12 | O=C(Nc1cc(-c2cnc(C(F)(F)F)s2)nc2c1C(c1cc(F)ccc1Cl)NC2=O)c1cc(F)cc(Cl)c1 (stereo not shown) [Compound I-496] | ≤ 0.1 µM
13 | O=C(Nc1cc(Br)cc2c1[C@@H](c1cc(F)ccc1F)NC2=O)c1cc(F)cc(C(F)(F)F)c1 [Compound I-671] | 1 to 10 µM
14 | CCn1cc(-c2cc(NC(=O)c3cc(F)cc(C(F)(F)F)c3)c3c(c2)C(=O)N[C@H]3c2cc(F)ccc2Cl)ccc1=O [Compound I-704] | ≤ 0.1 µM
15 | COCc1cc2c(c(N(C)C(=O)c3nsc4ccccc34)c1)C(c1ccccc1C)NC2=O (stereo not shown) [Compound I-134, N-(6-(Methoxymethyl)-1-oxo-3-(o-tolyl)isoindolin-4-yl)-N-methylbenzo[d]isothiazole-3-carboxamide] | 10 to 100 µM
16 | O=C(Nc1cc(-c2csc(C(=O)O)n2)cc2c1C(c1cc(F)ccc1Cl)NC2=O)c1cc(F)cc(C(F)(F)F)c1 (stereo not shown) [Compound I-1201] | ≤ 0.1 µM
17 | O=C(Nc1cc(B(O)O)cc2c1C(c1cc(F)ccc1Cl)NC2=O)c1cc(F)cc(Cl)c1 (stereo not shown) [Compound I-385] | ≤ 0.1 µM
18 | COC1CC(Nc2cc(NC(=O)c3cc(F)cc(C(F)(F)F)c3)c3c(c2)C(=O)NC3c2cc(F)ccc2Cl)C1 (single isomer, unassigned) [Compound I-781] | ≤ 0.1 µM
19 | Cc1ccccc1-n1[nH]c(=O)c2cccc(NC(=O)c3nsc4ccc(F)cc34)c21 [Compound I-152] | 1 to 10 µM
20 | Cc1ncc(-c2cc(NC(=O)c3cc(F)cc(C(F)(F)F)c3)c3c(c2)C(=O)N[C@@H]3c2cc(F)ccc2Cl)cn1 [Compound I-783] | 1 to 10 µM
21 | O=C(Cc1c(F)ccc(F)c1F)Nc1cc(Br)cc2c1C(c1cc(F)ccc1Cl)NC2=O (stereo not shown) [Compound I-563] | 10 to 100 µM
22 | O=C(Nc1cc(C2CCOC2)cc2c1C(c1cc(F)ccc1Cl)NC2=O)c1cc(F)cc(C(F)(F)F)c1 (racemic) [Compound I-778] | ≤ 0.1 µM
23 | Cc1ccccc1C1NC(=O)c2ccnc(NC(=O)c3nsc4ccccc34)c21 (stereo not shown) [Compound I-176, N-[3-(2-Methylphenyl)-1-oxo-1H,2H,3H-pyrrolo[3,4-c]pyridin-4-yl]-1,2-benzothiazole-3-carboxamide] | 1 to 10 µM
24 | O=C(Cc1cc(F)ccc1C(F)(F)F)Nc1cc(Br)cc2c1C(c1cc(F)ccc1Cl)NC2=O (stereo not shown) [Compound I-560] | 1 to 10 µM
25 | Cc1ccccc1C1NC(=O)c2cc(C(O)CO)cc(NC(=O)c3csc4ccccc34)c21 (mixture of isomers) [Compound I-139, N-[6-(1,2-Dihydroxyethyl)-3-(2-methylphenyl)-1-oxo-2,3-dihydro-1H-isoindol-4-yl]-1-benzothiophene-3-carboxamide] | ≤ 0.1 µM
26 | O=C1NC(c2cc(F)ccc2Cl)c2c(NC(=O)N3CCCCCC3)cc(Br)cc21 (stereo not shown) [Compound I-577] | 10 to 100 µM
27 | CC1(C(=O)Nc2cc(Br)cc3c2C(c2cc(F)ccc2Cl)NC3=O)CCCc2ccccc21 (stereo not shown) [Compound I-634] | 1 to 10 µM
28 | Cn1cc(-c2cc(NC(=O)c3cc(F)cc(C(F)(F)F)c3)c3c(n2)C(=O)N[C@@H]3c2cc(F)ccc2Cl)cn1 [Compound I-186] | 0.5 to 1 µM
29 | CO[C@@H]1CC[C@H]1Nc1cc(NC(=O)c2cc(F)cc(C(F)(F)F)c2)c2c(c1)C(=O)NC2c1cc(F)ccc1Cl (mixture of isomers) [Compound I-780] | ≤ 0.1 µM

The next lines start with the values.

Row | IC50 | SMILES
30 | 10 to 100 µM | O=C1N[C@@H](c2cc(F)ccc2Cl)c2c(NC(=O)N3C[C@@H](O)c4cc(F)ccc43)cc(Cl)cc21 (single isomer, unassigned) [Compound I-2401]
31 | 10 to 100 µM | O=C1N[C@@H](c2cc(F)ccc2Cl)c2c(NC(=O)N3C[C@@](O)(C(F)(F)F)c4cc(F)ccc43)ccc(-n3cccn3)c21 (single isomer, unassigned) [Compound I-2495]
32 | 0.1 to 0.5 µM | O=C1NC(c2cc(F)ccc2Cl)c2c(Nc3nc4ccccc4s3)cc(-c3ccc4ncnn4c3)cc21 (stereo not shown) [Compound I-1659]
33 | 1 to 10 µM | N#CCc1cc(NC(=O)N2C[C@@](O)(C(F)(F)F)c3ccccc32)c2c(c1)C(=O)N[C@@H]2c1cc(F)ccc1Cl (single isomer, unassigned) [Compound I-2603]
34 | 1 to 10 µM | O=C1N[C@@H](c2cc(F)ccc2Cl)c2c(NC(=O)N3C[C@H](O)c4cc(F)ccc43)cc(-n3nccn3)cc21 (single isomer, unassigned) [Compound I-2343]
35 | 1 to 10 µM | O=C1N[C@H](c2cc(F)ccc2Cl)c2c(NC(=O)c3csc4ccccc34)cc(-c3ccc4ncnn4c3)cc21 [Compound I-1685]
36 | 10 to 100 µM | O=C1N[C@@H](c2cc(F)ccc2Cl)c2c(NC(=O)N3CCC[C@](O)(C(F)(F)F)C3)cccc21 (single isomer, unassigned) [Compound I-2115]
37 | 1 to 10 µM | Nc1cc(NC(=O)N2C[C@@H](O)c3ccccc32)c2c(c1)C(=O)N[C@@H]2c1cc(F)ccc1Cl (single isomer, unassigned) [Compound I-2131]
38 | 1 to 10 µM | O=C1NC(c2cc(F)ccc2Cl)c2c(NC(=O)C3OCCc4ccccc43)cc(-c3ccc4ncnn4c3)cc21 (stereo not shown) [Compound I-1939]
39 | 10 to 100 µM | O=C1NC(c2cc(F)ccc2Cl)c2c(CC(=O)N3CCc4ccccc43)cc(-c3ccc4ncnn4c3)cc21 (stereo not shown) [Compound I-1914]
40 | 1 to 10 µM | O=C(Nc1cccc2c1[C@@H](CC1CCCC1)NC2=O)c1cc(F)cc(C(F)(F)F)c1 [Compound I-2154]
41 | 1 to 10 µM | O=C(Nc1cc(-c2cn3ncnc3cn2)cc2c1[C@@H](c1cc(F)ccc1C(F)F)NC2=O)c1cc(F)cc(Cl)c1 (single isomer, unassigned) [Compound I-2258]
42 | 10 to 100 µM | O=C1N[C@@H](c2cc(F)ccc2Cl)c2c(N[C@@H]3COCc4ccccc43)cc(Br)cc21 (racemic) [Compound I-1894]
43 | 1 to 10 µM | O=C1N[C@@H](c2cc(F)ccc2Cl)c2c(NC(=O)N3C[C@@](O)(C(F)(F)F)c4cc(F)ccc43)cc(-n3nccn3)cc21 (single isomer, unassigned) [Compound I-2571]
44 | 10 to 100 µM | O=C1N[C@@H](c2cc(F)ccc2Cl)c2c(NC(=O)N3C[C@H](CO)[C@@H](C(F)(F)F)C3)cccc21 (single isomer, unassigned) [Compound I-2279]
45 | 1 to 10 µM | CC(C)C1CCCN1C(=O)Nc1cccc2c1C(c1cc(F)ccc1Cl)NC2=O (mixture of isomers) [Compound I-2396]
46 | ≤ 0.1 µM | Cc1ncc(C#N)c(-c2cc(NC(=O)c3cc(F)cc(C(F)(F)F)c3)c3c(c2)C(=O)NC3c2cc(F)ccc2Cl)n1 (stereo not shown) [Compound I-1369]
47 | 1 to 10 µM | Cc1cn(-c2cc(NC(=O)N3C[C@@](O)(C(F)(F)F)c4cc(F)ccc43)c3c(c2)C(=O)N[C@@H]3c2cc(F)ccc2Cl)cn1 (single isomer, unassigned) [Compound I-2636]
48 | ≤ 0.1 µM | Cn1cc(-c2cc(NC(=O)c3cc(F)cc(C(F)(F)F)c3)c3c(c2)C(=O)N[C@H]3c2cc(F)ccc2Cl)c(C#N)n1 [Compound I-1738]
49 | ≤ 0.1 µM | CN1CC(COc2cc(NC(=O)c3cc(F)cc(C(F)(F)F)c3)c3c(c2)C(=O)NC3c2cc(F)ccc2Cl)CC1=O (mixture of isomers) [Compound I-1348]
50 | 10 to 100 µM | O=C1NC(c2cc(F)ccc2Cl)c2c1cc(-c1ccc3ncnn3c1)cc2N1CCn2c(nnc2C(F)(F)F)C1 (stereo not shown) [Compound I-2040]
51 | 10 to 100 µM | COC1CCCC(C(=O)Nc2cc(-c3ccc4ncnn4c3)cc3c2C(c2cc(F)ccc2Cl)NC3=O)C1 (mixture of isomers) [Compound I-2037]
52 | ≤ 0.1 µM | N#CC1(n2cc(-c3cc(NC(=O)c4cc(F)cc(C(F)(F)F)c4)c4c(c3)C(=O)N[C@H]4c3cc(F)ccc3Cl)cn2)CC1 [Compound I-1886]
53 | 1 to 10 µM | O=C(Nc1cccc2c1[C@H](CC1CCCC1)NC2=O)c1cc(F)cc(C(F)(F)F)c1 [Compound I-2153]
54 | 1 to 10 µM | N#Cc1c(-c2cc(NC(=O)c3cc(F)cc(C(F)(F)F)c3)c3c(c2)C(=O)N[C@@H]3c2cc(F)ccc2Cl)cnn1C(F)F [Compound I-1920]
55 | ≤ 0.1 µM | O=C(Nc1cc(-c2cn3ccnc3cn2)cc2c1[C@H](c1cc(F)ccc1Cl)NC2=O)c1cc(F)cc(C(F)(F)F)c1 [Compound I-1330]
56 | 10 to 100 µM | O=C1NC(c2cc(F)ccc2Cl)c2c(NC(=O)C3CCC(O)CC3)cc(-c3ccc4ncnn4c3)cc21 (stereo not shown) [Compound I-1690]
57 | ≤ 0.1 µM | O=C1NC[C@@H](c2cc(NC(=O)c3cc(F)cc(C(F)(F)F)c3)c3c(c2)C(=O)N[C@H]3c2cc(F)ccc2Cl)O1 (single isomer, unassigned) [Compound I-1562]
58 | 10 to 100 µM | O=C(Nc1cccc2c1C(CN1CCCC1)NC2=O)c1cc(F)cc(C(F)(F)F)c1 (stereo not shown) [Compound I-1761]
